Measured values as given in patent US20240270748A1 (Merck Patent GmbH, priority 2021, published 2024).
pIC50: −log10 of the molar value. Structures can show the parent of a compound that is named as a salt.

System: YAP-TEAD interaction
Assay: SK-HEP-1 reporter assay (8xTEAD responsive elements driving NanoLuc luciferase)
Format: cell-based
Settings: Homo sapiens, SK-HEP1, SK-HEP-1 reporter assay; class symbols
Description: To identify inhibitors of YAP-TEAD interaction, 8×TEAD responsive elements driving the NanoLuc® luciferase gene were stably integrated into SK-HEP-1 cells (ECACC #: 91091816).
For the assay, cells were treated in duplicates with the test compounds in a 10-point dose, with the top concentration starting at 30 μM (final concentration in assay). After a 24 hour incubation at 37° C., 95% rH, and 5% CO2, a luciferase substrate/lysis reagent mix (NanoGlo™, Promega) was added to the cells, allowing the quantification of cellular luciferase activity.
Cell Media: The cells were cultured in the following media: MEM, +10% FBS, +1× GlutaMAX, +1 mM Sodium-Pyruvate, +100 μM Non-essential amino acids, +0.1 mg/ml Hygromycin. The media used for the assay was: MEM (w/o Phenol Red), +10% FBS, +1× GlutaMAX, +1 mM Sodium-Pyruvate, +100 μM Non-essential amino acids, +0.5% Pen/Strep
Reagents: The reagents used are listed below:
Cell culture: The cells were examined using an inverted microscope to check for health and cell density. To dissociate adherent cells, the monolayer of cells was washed once with pre-warmed PBS. After removing the PBS, 3 ml pre-warmed Accutase® was added to a F75 flask, dispersed evenly and the flask was allowed to sit in incubator for ˜4-5 minutes.
When a single cell suspension was obtained, 7 ml of prewarmed growth media was added and resuspended with the cells. The cell suspension was transferred to a sterile 15 ml conical centrifuge tube, and spun for 5 min at 300×g, RT. The supernatant was discarded and the pellet was resuspended in 10 ml of pre-warmed growth media.
The total cell count was determined, and 20 μl of the desired cell number was added to each well of a 384 well plate using a Multidrop Combi. The plates were then incubated for 24 hours at 37° C., 95% rH, and 5% C02.
Compound treatment: 24 hours after seeding, the cells were treated with compounds.
A 1:333 dilution of compounds, diluted in DMSO, was made to get a final concentration of 0.3% DMSO per well. To transfer the compounds to the assay plate, […] was shot from Labcyte low dead volume plates to the cell plates containing 20 μl media/well with the ECHO 555 liquid handling system.
After treatment, the cells were fed with 20 μl fresh pre-warmed assay media using a Multidrop combi.
The assay plates were then incubated for another 24 h at 37° C., 95% rH, and 5% CO2.
Luciferase readout: 24 h after treatment, the plates were taken out of the incubator and were allowed to equilibrate to RT. 30 μl of NanoGlo® reagent was added to the plates in the dark. Plates were shaken for 20 min on a Teleshake (˜1500 rpm) in the dark. The luminescence was then measured using an EnVision microplate reader. The IC50 values were generated using Genedata Screener®.

Row | SMILES | pIC50
1 | Cn1cnc2c1c1cc(C3CC(Br)=NO3)ccc1n2-c1ccc(C(F)(F)F)cc1 (stereo not shown) [Example C158, 3-bromo-5-{1-methyl-4-[4-(trifluoromethyl)phenyl]-1H,4H-imidazo[4,5-b]indol-7-yl}-4,5-dihydro-1,2-oxazole] | 5.00 to 7.00
2 | C[C@H](NC(=O)c1ccc2c(c1)c1cn(C)nc1n2-c1ccc(C(F)(F)F)cc1)c1ccc(Cl)nc1 [Example C265, N-[(1S)-1-(6-chloropyridin-3-yl)ethyl]-2-methyl-8-[4-(trifluoromethyl)phenyl]-2H,8H-pyrazolo[3,4-b]indole-5-carboxamide] | 7.00 to 8.00
3 | C[C@@H](NC(=O)c1ccc2c(c1)c1cn(C)nc1n2-c1ccc(C(F)(F)F)cc1)c1ccccn1 [Example C107, 2-methyl-N-[(1R)-1-(pyridin-2-yl)ethyl]-8-[4-(trifluoromethyl)phenyl]-2H,8H-pyrazolo[3,4-b]indole-5-carboxamide] | 5.00 to 7.00
4 | Cn1cc2c3cc(NC(=O)CNC4CCNC4)ccc3n(-c3ccc(C(F)(F)F)cc3)c2n1 (stereo not shown) [Example C224, N-{2-methyl-8-[4-(trifluoromethyl)phenyl]-2H,8H-pyrazolo[3,4-b]indol-5-yl}-2-[{pyrrolidin-3-yl)amino]acetamide] | 5.00 to 7.00
5 | Cn1cc2c(n1)c1cc(S(=O)(=O)N3CCC[C@H]3c3cccnc3)ccc1n2-c1ccc(C(F)(F)F)cc1 (single isomer, unassigned) [Example C14] | < 5.00
6 | Cn1cnc2c1c1cc(C3CC(n4nccn4)=NO3)ccc1n2-c1ccc(C(F)(F)F)cc1 (stereo not shown) [Example C212, 2-(5-{1-methyl-4-[4-(trifluoromethyl)phenyl]-1H,4H-imidazo[4,5-b]indol-7-yl}-4,5-dihydro-1,2-oxazol-3-yl)-2H-1,2,3-triazole] | 5.00 to 7.00
7 | Cn1nc2c3cc(C(=O)O)ccc3n(-c3ccc(C(F)(F)F)cc3F)c2n1 [Example C258, 4-[2-fluoro-4-(trifluoromethyl)phenyl]-2-methyl-2H,4H-[1,2,3]triazolo[4,5-b]indole-7-carboxylic acid] | 8.00 to 9.00
8 | C[C@H](CO)C(=O)Nc1ccc2c(c1)c1cn(C)nc1n2-c1ccc(C(F)(F)F)cc1 [Example C154, (2R)-3-hydroxy-2-methyl-N-{2-methyl-8-[4-(trifluoromethyl)phenyl]-2H,8H-pyrazolo[3,4-b]indol-5-yl}propanamide] | 5.00 to 7.00
9 | O=C(O)c1ccc2c(c1)c1cnn(C(F)(F)F)c1n2-c1ccc(C(F)(F)F)cc1 [Example C34, 1-(trifluoromethyl)-8-[4-(trifluoromethyl)phenyl]-1H,8H-pyrazolo[3,4-b]indole-5-carboxylic acid] | 5.00 to 7.00
10 | Cc1snc2c1c1cc(C(=O)N3CC[C@@H](O)C3)ccc1n2-c1ccc(C(F)(F)F)cc1 [Example C54, (3R)-1-{3-methyl-8-[4-(trifluoro-methyl)phenyl]-8H-[1,2]thiazolo[3,4-b]indole-5-carbonyl}pyrrolidin-3-ol] | 5.00 to 7.00
11 | CCCNS(=O)(=O)c1ccc2c(c1)c1cn(C)nc1n2-c1ccc(C(F)(F)F)cc1 [Example C71, 2-methyl-N-propyl-8-[4-(trifluoromethyl)phenyl]-2H,8H-pyrazolo[3,4-b]indole-5-sulfonamide] | 5.00 to 7.00
12 | Cn1nc2c3cc(C(=O)N=[S@@](=O)(CCO)Cc4cccnc4)ccc3n(-c3ccc(C(F)(F)F)cc3)c2n1 (single isomer, unassigned) [Example C238] | 7.00 to 8.00
13 | C[C@@H](NC(=O)c1ccc2c(n1)c1cn(C)nc1n2-c1ccc(C(F)(F)F)cc1)c1ccccn1 [Example C114, 4-methyl-N-[(1R)-1-(pyridin-2-yl)ethyl]-7-[4-(trifluoromethyl)phenyl]-4,5,7,12-tetraazatricyclo[6.4.0.0^2,6]dodeca-1(8),2,5,9,11-pentaene-11-carboxamide] | 5.00 to 7.00

Other lines, results leading:

Row | pIC50 | SMILES
14 | 5.00 to 7.00 | CC(NC(=O)c1ccc2c(c1)c1cn(C)nc1n2-c1ccc(C(F)(F)F)cc1)c1cccc(N)n1 (single isomer, unassigned) [Example C186]
15 | 5.00 to 7.00 | C[C@H](NC(=O)c1ccc2c(c1)c1cn(C)nc1n2-c1ccc(C(F)(F)F)cc1)C1CNC1 [Example C144, N-[(1S)-1-(azetidin-3-yl)ethyl]-2-methyl-8-[4-(trifluoromethyl)phenyl]-2H,8H-pyrazolo[3,4-b]indole-5-carboxamidetrifluoroacetate]
16 | 5.00 to 7.00 | Cn1cc2c3cc(C(N)=O)ccc3n(C3CC4(C3)CC(F)(F)C4)c2n1 [Example C205, 8-{6,6-difluorospiro[3.3]heptan-2-yl}-2-methyl-2H,8H-pyrazolo[3,4-b]indole-5-carboxamide]
17 | 5.00 to 7.00 | C[C@H](CO)NC(=O)c1ccc2c(c1)c1cn(C)nc1n2-c1ccc(F)cc1 [Example C155, 8-(4-fluorophenyl)-N-[(2R)-1-hydroxypropan-2-yl]-2-methyl-2H,8H-pyrazolo[3,4-b]indole-5-carboxamide]
18 | 5.00 to 7.00 | Cn1cc2c3cc(C(=O)N=S4(=O)CCC(C)(N)CC4)ccc3n(-c3ccc(C(F)(F)F)cc3)c2n1 (stereo not shown) [Example C139, N-(4-amino-4-methyl-1-oxo-1lambda6-thian-1-ylidene)-2-methyl-8-[4-(trifluoromethyl)phenyl]-2H,8H-pyrazolo[3,4-b]indole-5-carboxamide]
19 | 5.00 to 7.00 | Cn1cc2c3cc(NC(=O)CCN)ccc3n(-c3ccc(C(F)(F)F)cc3)c2n1 [Example C221, 3-amino-N-{2-methyl-8-[4-(trifluoromethyl)phenyl]-2H,8H-pyrazolo[3,4-b]indol-5-yl}propanamide]
20 | 5.00 to 7.00 | C[C@@H](CCN)NC(=O)c1ccc2c(c1)c1cn(C)nc1n2-c1ccc(C(F)(F)F)cc1 [Example C26, N-[(2S)-4-aminobutan-2-yl]-2-methyl-8-[4-(trifluoromethyl)phenyl]-2H,8H-pyrazolo[3,4-b]indole-5-carboxamide]
21 | 5.00 to 7.00 | Cn1cc2c3cc(C(=O)NC4(CO)CCNCC4)ccc3n(-c3ccc(C(F)(F)F)cc3)c2n1 [Example C218, N-[4-(hydroxymethyl)piperidin-4-yl]-2-methyl-8-[4-(trifluoromethyl)phenyl]-2H,8H-pyrazolo[3,4-b]indole-5-carboxamide]
22 | 5.00 to 7.00 | Cn1cc2c3cc(C(=O)/N=S4/CC(N)CO4)ccc3n(-c3ccc(C(F)(F)F)cc3)c2n1 (stereo not shown) [Example C269, N-(4-amino-1,2lambda4-oxathiolan-2-ylidene)-2-methyl-8-[4-(trifluoromethyl)phenyl]-2H,8H-pyrazolo[3,4-b]indole-5-carboxamide formate]
23 | 5.00 to 7.00 | Cn1cc2c3cc(NC(=O)CC4CNC4)ccc3n(-c3ccc(C(F)(F)F)cc3)c2n1 [Example C244, 2-(azetidin-3-yl)-N-{2-methyl-8-[4-(trifluoromethyl)phenyl]-2H,8H-pyrazolo[3,4-b]indol-5-yl}acetamide formate]
24 | 5.00 to 7.00 | Cn1cc2c3cc(C(=O)N4CC[C@@H](O)C4)ccc3n(-c3ccc(C(F)(F)F)c(F)c3)c2n1 [Example C171, (3R)-1-{8-[3-fluoro-4-(trifluoromethyl)phenyl]-2-methyl-2H,8H-pyrazolo[3,4-b]indole-5-carbonyl}pyrrolidin-3-ol]
25 | 5.00 to 7.00 | Cn1cc2c3cc(C(=O)N4CC(CF)C4)ccc3n(-c3ccc(C(F)(F)F)cc3)c2n1 [Example C60, 3-(fluoromethyl)-1-{2-methyl-8-[4-(trifluoromethyl)phenyl]-2H,8H-pyrazolo[3,4-b]indole-5-carbonyl}azetidine]

Same assay, conditions: Homo sapiens, SK-HEP1, SK-HEP-1 reporter assay; n.d. = value not detectable below threshold given in parentheses; ND = not determinable within the entire range

Row | pIC50 | SMILES
26 | < 5.00 | Cn1cc2c3cc(NC(=O)Cc4ccncc4)ccc3n(-c3ccc(C(F)(F)F)cc3)c2n1 [Example C33, N-{2-methyl-8-[4-(trifluoromethyl)phenyl]-2H,8H-pyrazolo[3,4-b]indol-5-yl}-2-(pyridin-4-yl)acetamide]
27 | < 4.52 | Cn1nnc2c3cc(S(=O)(=O)O)ccc3n(-c3ccc(C(F)(F)F)cc3)c21 [Example C44, 3-methyl-4-[4-(trifluoromethyl)phenyl]-3H,4H-[1,2,3]triazolo[4,5-b]indole-7-sulfonic acid]
28 | < 4.52 | C[C@H](CO)NS(=O)(=O)c1ccc2c(c1)c1nnn(C)c1n2-c1ccc(C(F)(F)F)cc1 [Example C13, N-[(2R)-1-hydroxypropan-2-yl]-3-methyl-4-[4-(trifluoromethyl)phenyl]-3H,4H-[1,2,3]triazolo[4,5-b]indole-7-sulfonamide]
